# From article PMC11374718, “Unlocking opioid neuropeptide dynamics with genetically encoded biosensors” (Nature Neuroscience, 2024)
# How the values were obtained:
# κLight1.3a [1] = test: in vivo fiber photometry of κLight1.3a in NAcSh, agonist/antagonist drug injection; set-up: species or system mouse; settings: κOR-Cre mice NAcSh; aticaprant 3 mg per kg + U50,488 10 mg per kg i.p.; 0–50 min; n = 6
# Protocol: To detect dynorphin signaling at κOR-expressing neurons, we injected κOR-Cre mice with AAV5-CAG-DIO-κLight1.3a and implanted optical fibers in the NAcSh. A subset of mice was also injected with the red-shifted opsin ChRimson (AAV5-DIO-EF1a-ChRimson-tdTomato) in the BLA (Fig. 5a–c and Extended Data Fig. 5a); ChRimson-lacking mice served as a negative control to determine if optical stimulation produced artifactual dynamics in κLight1.3a fluorescence. We first examined the response of κLight1.3a to the agonist U50,488 in these mice (Fig. 5d).
# Mice were pretreated with either vehicle (17:1:1:1 ratio of saline:dimethylsulfoxide:corn oil:ethanol) or aticaprant (Eli Lilly) at 3 mg per kg body weight […] i.p. for 30 min. […]
# Custom MATLAB scripts were developed for analyzing fiber photometry data in the context of mouse behavior. […] After baseline correction, the photometry trace was z-scored relative to the mean and standard deviation of the session. The post-processed fiber photometry signal was analyzed in the context of animal behavior during Pavlovian conditioning and operant task performance. […] Peak, mean and minimum fluorescence was determined during predetermined time windows for the injection period (0–5 min), reward period (5–20 s), release period (0–20 s) or artifact period (0–20 s) subtracted from peak, mean or minimum fluorescence values in a baseline window (−5 to 0 s). […]
# κLight1.3a [2] = test: in vivo BLA terminal ChRimson stimulation-evoked κLight1.3a activity in NAcSh after drug pretreatment; set-up: species or system mouse; settings: aticaprant 3 mg per kg i.p. pretreatment; normalized to vehicle; 0–20 s; n = 4
smiles,measurement,setting,value
Cc1cc(C)cc([C@@H]2CCCN2Cc2ccc(Oc3ccc(C(N)=O)cc3F)cc2)c1 [aticaprant],Normalized peak fluorescence of κLight1.3a during injection period,κLight1.3a [1],0.29 ± 0.07
same,"Normalized peak fluorescence of κLight1.3a, ChRimson stimulation-evoked trials",κLight1.3a [2],0.63 ± 0.14
